Assay results published in ChEMBL document CHEMBL1139911, “4-substituted indazoles as new inhibitors of neuronal nitric oxide synthase” (Bioorg Med Chem Lett, 2007).

Key:
[1] = target: Nitric oxide synthase 1 (Rattus norvegicus, UniProt P29476); assay: Inhibition of rat neuronal NOS
[2] = test system: Mus musculus; assay: Antinociceptive effect in acetic acid-induced mouse assessed as number of writhes for 10 mins at 25 mg/kg, ip; format: functional; settings: route intraperitoneal
[3] = test system: Mus musculus; assay: Antinociceptive effect in acetic acid-induced mouse assessed as number of writhes for 10 mins at 12.5 mg/kg, ip; format: functional; settings: route intraperitoneal
[4] = test system: Mus musculus; assay: Reversal of antinociceptive effect in L-arginine pretreated mouse assessed as number or writhes for 10 mins at 50 mg/kg, ip; format: functional; settings: route intraperitoneal
[5] = test system: Mus musculus; assay: Antinociceptive effect in acetic acid-induced mouse assessed as number of writhes for 10 mins at 50 mg/kg, ip; format: functional; settings: route intraperitoneal
[6] = test system: Mus musculus; assay: Antinociceptive effect in mouse assessed as number of writhes for 10 mins at 50 mg/kg, ip; format: functional; settings: route intraperitoneal

Sequence of Nitric oxide synthase 1 (P29476 whole entry): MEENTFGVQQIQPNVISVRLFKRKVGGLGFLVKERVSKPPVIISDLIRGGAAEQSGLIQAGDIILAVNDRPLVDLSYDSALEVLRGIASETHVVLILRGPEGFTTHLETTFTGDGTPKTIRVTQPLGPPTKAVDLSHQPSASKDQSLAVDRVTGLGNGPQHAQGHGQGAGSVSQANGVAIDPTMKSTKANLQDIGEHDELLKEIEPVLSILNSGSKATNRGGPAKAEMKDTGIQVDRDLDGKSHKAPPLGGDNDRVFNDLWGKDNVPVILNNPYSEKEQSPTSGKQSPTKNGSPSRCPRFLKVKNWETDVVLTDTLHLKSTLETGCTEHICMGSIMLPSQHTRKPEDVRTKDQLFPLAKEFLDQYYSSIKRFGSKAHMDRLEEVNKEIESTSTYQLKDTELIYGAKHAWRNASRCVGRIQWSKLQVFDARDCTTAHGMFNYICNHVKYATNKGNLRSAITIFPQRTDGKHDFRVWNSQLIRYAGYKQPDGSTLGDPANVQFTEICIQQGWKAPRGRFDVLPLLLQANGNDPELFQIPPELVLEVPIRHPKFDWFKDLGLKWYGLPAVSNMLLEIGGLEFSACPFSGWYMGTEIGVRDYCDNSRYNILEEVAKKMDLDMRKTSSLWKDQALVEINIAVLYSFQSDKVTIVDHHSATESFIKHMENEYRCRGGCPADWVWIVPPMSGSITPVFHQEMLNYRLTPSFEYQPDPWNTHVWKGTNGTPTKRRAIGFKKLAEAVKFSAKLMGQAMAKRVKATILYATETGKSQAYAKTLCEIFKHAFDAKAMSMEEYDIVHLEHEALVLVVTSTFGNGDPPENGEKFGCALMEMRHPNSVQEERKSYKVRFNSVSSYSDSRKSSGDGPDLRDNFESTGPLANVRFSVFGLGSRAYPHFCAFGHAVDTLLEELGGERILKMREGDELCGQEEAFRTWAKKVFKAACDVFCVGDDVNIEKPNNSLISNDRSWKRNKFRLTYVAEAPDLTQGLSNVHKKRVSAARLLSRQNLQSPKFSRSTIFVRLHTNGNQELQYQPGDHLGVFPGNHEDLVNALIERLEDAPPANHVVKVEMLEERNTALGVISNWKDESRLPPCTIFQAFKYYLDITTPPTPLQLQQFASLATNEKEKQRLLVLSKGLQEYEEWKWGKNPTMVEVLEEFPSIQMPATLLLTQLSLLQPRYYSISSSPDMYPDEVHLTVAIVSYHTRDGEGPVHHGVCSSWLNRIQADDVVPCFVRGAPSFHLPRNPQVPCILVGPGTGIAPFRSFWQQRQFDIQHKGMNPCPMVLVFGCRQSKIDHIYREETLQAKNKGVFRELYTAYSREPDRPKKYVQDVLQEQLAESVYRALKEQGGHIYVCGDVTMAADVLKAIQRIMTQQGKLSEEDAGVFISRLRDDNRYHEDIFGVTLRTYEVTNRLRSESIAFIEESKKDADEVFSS

## Fc1ccc2[nH]ncc2c1
[1]
  IC50: > 100 µM

## Brc1ccc2[nH]ncc2c1
[1]
  IC50: 72 µM

## Brc1cccc2[nH]ncc12
[2]
  Activity: 8.8
[3]
  Activity: 11
[1]
  IC50: 2.4 µM
[4]
  Activity: 24.3
[5]
  Activity: 9.3
[6]
  Activity: 10.8

## Clc1cccc2[nH]ncc12
[1]
  IC50: 44.3 µM

## Ic1cccc2[nH]ncc12
[1]
  IC50: 17 µM

## Clc1ccc2[nH]ncc2c1
[1]
  IC50: 59.3 µM

## Brc1ccc2cn[nH]c2c1
[1]
  IC50: 4.3 µM

## Fc1ccc2cn[nH]c2c1
[1]
  IC50: > 100 µM

## Clc1cccc2cn[nH]c12
[2]
  Activity: 12.9
[3]
  Activity: 15
[1]
  IC50: 4.2 µM
[4]
  Activity: 23
[5]
  Activity: 7.9
[6]
  Activity: 12.1

## Ic1ccc2[nH]ncc2c1
[1]
  IC50: 37 µM

## Clc1ccc2cn[nH]c2c1
[1]
  IC50: 22 µM

## Fc1cccc2[nH]ncc12
[1]
  IC50: > 100 µM

## O=[N+]([O-])c1cccc2[nH]ncc12
[2]
  Activity: 9.9
[3]
  Activity: 18
[4]
  Activity: 23.8
[5]
  Activity: 9.3
[6]
  Activity: 11.8

## Brc1cccc2cn[nH]c12
[1]
  IC50: 14.3 µM

## O=[N+]([O-])c1cccc2cn[nH]c12 [7-NITROINDAZOLE]
[5]
  Activity: 6.8

## N=C(N)NCCC[C@H](N)C(=O)O [ARGININE]
[6]
  Activity: 22.9

## CC(=O)Oc1ccccc1C(=O)O [ASPIRIN]
[3]
  Activity: 7.6
